≈ marks a conversion by molar mass, not a printed value. Where two headings read alike, the source gives them in different places. Non-standard residues stand in square brackets, D forms with d. Residues, ends and D or L forms follow the SMILES beside them. No end group written: not given here.
Assays:
Assay type in all cases: cell-based
[1] = tested on: E. asburiae/cloacae St. L P23; test: organism not typed
Description: (§1) The following strains were used: P. aeruginosa (ATCC 27,853 and resistant strains: J4228 (R: Meropenem), BB2013-100 (FQR)); A. baumannii (Josh 28 and resistant strain Josh 230 (OXA-48); E. cloacae (resistant strains: BB2012-181(R: Meropenem), BB2013-32 (FQR)); E. aerogenes (resistant strain St. L P63 (NDM-1), E. asburiae/cloacae (resistant strain St. L P23 (NDM-1), K. pneumonia (J3702 and resistant strains: BB2009-209 (KPC-2), Oschner KP-1), Escherichia coli (BW25113 (7636) and resistant strains: JW55034 (11430) (Tol neg), BB2013-30 (R:carbapenem), ARLG-1012 (NDM)). Susceptibility testing was performed using non-cation adjusted MHB broth and polypropylene plates. Testing was also done in the presence and absence of acetic acid and BSA.

E. coli ARLG-1012 = test: microbe, parasite or virus in culture
Description: as §1

K. pneumoniae J3702 = test: microbe, parasite or virus in culture
Description: as §1

K. pneumoniae BB2009-209 = test: microbe, parasite or virus in culture
Description: as §1

P. aeruginosa ATCC 27853 = test: microbe, parasite or virus in culture
Description: as §1

E. aerogenes St. L P63 = test: microbe, parasite or virus in culture; conditions: Klebsiella aerogenes, ST.LP63; E. aerogenes St. L P63, phenotype NDM-1; non-cation adjusted MHB broth, polypropylene plates; meropenem by standard CLSI method; read-out: MIC
Description: as §1

E. coli BW25113 (7636) = test: microbe, parasite or virus in culture
Description: as §1

A. baumannii Josh 28 = test: microbe, parasite or virus in culture
Description: as §1

E. coli BB2013-30 = test: microbe, parasite or virus in culture
Description: as §1

E. cloacae BB2012-181 = test: microbe, parasite or virus in culture; conditions: Enterobacter cloacae, BB2012181; E. cloacae BB2012-181, phenotype R: Meropenem; non-cation adjusted MHB broth, polypropylene plates; meropenem by standard CLSI method; read-out: MIC
Description: as §1

P. aeruginosa BB2013-100 = test: microbe, parasite or virus in culture
Description: as §1

[2] = tested on: K. pneumoniae Oschner KP-1; test: microbe, parasite or virus in culture
Description: as §1

A. baumannii Josh 230 = test: microbe, parasite or virus in culture
Description: as §1

P. aeruginosa J4228 = test: microbe, parasite or virus in culture
Description: as §1

E. cloacae BB2013-32 = test: microbe, parasite or virus in culture
Description: as §1

E. coli JW55034 (11430) = test: microbe, parasite or virus in culture; conditions: phenotype Tol neg, non-cation adjusted MHB broth, polypropylene plates, meropenem by standard CLSI method
Description: as §1

[3] = tested on: Escherichia coli ATCC 25922
Method: The MICs of the designed cationic peptides against Escherichia coli ATCC 25,922 strains were determined by the broth microdilution method, as described by Hancock et al.. All MIC evaluations were performed using Luria Bertani (LB) medium. Briefly, a range of each peptide concentrations (100 µg/mL, 50 µg/mL, 25 µg/mL, 12.5 µg/mL, 6.25 µg/mL, 3.125 µg/mL) was prepared by serial dilution in NaCl-depleted LB medium and added to an equal volume (250 µl) of exponentially grown bacterial culture, so that final bacterial suspension contained 5 × 10^5 CFU/mL. The samples were incubated in 2 mL polypropylene microtubes at 37 °C overnight at 300 rpm. The MIC was defined as the concentration at which no microbial growth was detected spectrophotometrically, via readings of optical density (OD) at 600 nm (Biotek ELX800 microplate reader). Growth medium containing only bacterial cells was used as a negative control. Each MIC test was carried out in two replicates and repeated three times.

## C[C@@H](O)[C@H]1C(=O)N2C(C(=O)O)=C(S[C@@H]3CN[C@H](C(=O)N(C)C)C3)[C@H](C)[C@H]12 [Meropenem, reference compound]
[1]; E. asburiae/cloacae St. L P23, phenotype NDM-1, non-cation adjusted MHB broth, polypropylene plates, meropenem by standard CLSI method, read-out: MIC
  MIC: 16 µg/mL (≈ 41.7 µM)
E. coli ARLG-1012; Escherichia coli, ARLG1012, E. coli ARLG-1012, phenotype NDM, non-cation adjusted MHB broth, polypropylene plates, meropenem by standard CLSI method, read-out: MIC
  MIC: 64 µg/mL (≈ 167 µM)
K. pneumoniae J3702; Klebsiella pneumoniae, K. pneumoniae J3702, phenotype Susceptible, non-cation adjusted MHB broth, polypropylene plates, meropenem by standard CLSI method, read-out: MIC
  MIC: ≤ 0.125 µg/mL
K. pneumoniae BB2009-209; Klebsiella pneumoniae, BB2009209, K. pneumoniae BB2009-209, phenotype KPC-2, non-cation adjusted MHB broth, polypropylene plates, meropenem by standard CLSI method, read-out: MIC
  MIC: 32 µg/mL (≈ 83.4 µM)
P. aeruginosa ATCC 27853; Pseudomonas aeruginosa, ATCC27853, P. aeruginosa ATCC 27853, phenotype CLSI Control, non-cation adjusted MHB broth, polypropylene plates, meropenem by standard CLSI method, read-out: MIC
  MIC: 1 µg/mL (≈ 2.61 µM)
E. aerogenes St. L P63
  MIC: 16 µg/mL (≈ 41.7 µM)
E. coli BW25113 (7636); Escherichia coli, E. coli BW25113 (7636), phenotype WT, Tol parent strain, non-cation adjusted MHB broth, polypropylene plates, meropenem by standard CLSI method, read-out: MIC
  MIC: ≤ 0.125 µg/mL
A. baumannii Josh 28; Acinetobacter baumannii, JOSH28, A. baumannii Josh 28, phenotype Susceptible, non-cation adjusted MHB broth, polypropylene plates, meropenem by standard CLSI method, read-out: MIC
  MIC: 32 µg/mL (≈ 83.4 µM)
E. coli BB2013-30; Escherichia coli, BB201330, E. coli BB2013-30, phenotype R:carbapenem, non-cation adjusted MHB broth, polypropylene plates, meropenem by standard CLSI method, read-out: MIC
  MIC: 1 µg/mL (≈ 2.61 µM)
E. cloacae BB2012-181
  MIC: 16 µg/mL (≈ 41.7 µM)
P. aeruginosa BB2013-100; Pseudomonas aeruginosa, BB2013100, P. aeruginosa BB2013-100, phenotype FQR, non-cation adjusted MHB broth, polypropylene plates, meropenem by standard CLSI method, read-out: MIC
  MIC: 1 µg/mL (≈ 2.61 µM)
[2]; Klebsiella pneumoniae, K. pneumoniae Oschner KP-1, phenotype KPC-3, non-cation adjusted MHB broth, polypropylene plates, meropenem by standard CLSI method, read-out: MIC
  MIC: 16 µg/mL (≈ 41.7 µM)
A. baumannii Josh 230; Acinetobacter baumannii, JOSH230, A. baumannii Josh 230, phenotype OXA-48, non-cation adjusted MHB broth, polypropylene plates, meropenem by standard CLSI method, read-out: MIC
  MIC: 1 µg/mL (≈ 2.61 µM)
P. aeruginosa J4228; Pseudomonas aeruginosa, P. aeruginosa J4228, phenotype R: Meropenem, non-cation adjusted MHB broth, polypropylene plates, meropenem by standard CLSI method, read-out: MIC
  MIC: > 64 µg/mL
E. cloacae BB2013-32; Enterobacter cloacae, BB201332, E. cloacae BB2013-32, phenotype FQR, non-cation adjusted MHB broth, polypropylene plates, meropenem by standard CLSI method, read-out: MIC
  MIC: 0.5 µg/mL (≈ 1.3 µM)
E. coli JW55034 (11430); Escherichia coli, read-out: MIC
  MIC: ≤ 0.125 µg/mL

## CC[C@@H](C)[C@@H](NC(=O)[C@@H](C)N)C(=O)N[C@H](CCCCN)C(=O)N[C@@H](C(=O)N[C@H](CCCNC(=N)N)C(=O)N[C@H](CCCCN)C(=O)N[C@H](CC(C)C)C(=O)N[C@H](Cc1ccccc1)C(=O)N[C@H](CCCCN)C(=O)N[C@H](CCCCN)C(=O)N[C@H](CC(C)C)C(=O)N[C@H](CC(C)C)C(=O)N[C@H](CCCNC(=N)N)C(N)=O)[C@H](C)CC [SP1D] (H-[dA][dI][dK][dI][dR][dK][dL][dF][dK][dK][dL][dL][dR]-NH2)
[3]
  MIC At NaCl: 12.5 to 25 µg/mL
  MIC Without NaCl: 3.125 to 6.25 µg/mL

## CC[C@@H](C)[C@@H](NC(=O)[C@@H](Cc1c[nH]c2ccccc12)NC(=O)[C@H](N)CCCNC(=N)N)C(=O)N[C@H](CCCNC(=N)N)C(=O)N[C@H](Cc1c[nH]c2ccccc12)C(=O)N[C@@H](C(=O)N[C@H](Cc1c[nH]c2ccccc12)C(=O)N[C@H](CCCNC(=N)N)C(=O)N[C@H](CCCCN)C(=O)N[C@H](CCCCN)C(=O)N[C@H](CC(C)C)C(=O)N[C@H](CCCNC(=N)N)C(N)=O)C(C)C [SP15D] (H-[dR][dW][dI][dR][dW][dV][dW][dR][dK][dK][dL][dR]-NH2)
[3]
  MIC At NaCl: 0.78 to 1.56 µg/mL
  MIC Without NaCl: 0.39 to 0.78 µg/mL

## AIKIRKLFKKLLR-NH2 [SP1]
[1]
  MIC: >32 µg/mL
E. coli ARLG-1012; ARLG-1012
  MIC: 8 µg/mL
K. pneumoniae J3702; J3702
  MIC: >32 µg/mL
K. pneumoniae BB2009-209; BB2009-209
  MIC: >32 µg/mL
P. aeruginosa ATCC 27853; ATCC 27853
  MIC: 4 µg/mL
E. coli BW25113 (7636); BW25113
  MIC: 8 µg/mL
A. baumannii Josh 28; Josh 28
  MIC: 4 µg/mL
E. coli BB2013-30; BB2013-30
  MIC: 16 µg/mL
P. aeruginosa BB2013-100; BB2013-100
  MIC: 32 µg/mL
[2]; Oschner KP-1
  MIC: >32 µg/mL
A. baumannii Josh 230; Josh 230
  MIC: 16 µg/mL
P. aeruginosa J4228; J4228
  MIC: 8 µg/mL
E. cloacae BB2013-32; BB2013-32
  MIC: >32 µg/mL
E. coli JW55034 (11430)
  MIC: 8 µg/mL
[3]
  MIC At NaCl: 12.5 to 25 µg/mL
  MIC Without NaCl: 3.125 to 6.25 µg/mL

— publication PMC6631481, “De Novo Design and In Vitro Testing of Antimicrobial Peptides against Gram-Negative Bacteria” (Pharmaceuticals, 2019)
